{"source": "patent US6906175B2", "about": "“Production of adenine nucleotide translocator (ANT), novel ANT ligands and screening assays therefor” (priority 1998, dated 2005)", "experiment": "125I-compound 24 competition binding (Tube Assay), mitochondria from control non-infected T. ni cells", "settings": "control (nontransformed) T. ni mitochondria, 1 μg protein/tube; FIG. 15", "description": "Atractyloside analogs (Example 6; Table 1; see also Examples 7-9) were also used in pseudo-homologous competition binding assays using T. ni/huANT3 mitochondria or bovine mitochondria. Mitochondria from noninfected T. ni cells, or T. ni cells infected with a baculovirus expressing huANT3 (see Example 3) were prepared as follows: […] cells were prepared by a subcontractor (PharMingen, San Diego, Calif.) as portions of about 250 mg of cells per tube. […]\nThe mitochondrial preparations were divided into aliquots (typically, 50μl for T. ni mitochondria or 20 μl for bovine mitochondria) and then either used directly in assays or flash frozen and stored at −80° C. The total protein content in the mitochondrial preparations was determined using the enhanced protocol (30 minutes at 60° C.; see http://www.ruf.rice.edu/˜bioslabs/methods/protein/BCA.html) of the bicinchoninic acid (BCA) assay (available in kit form from Pierce, Rockford, Ill.). […]\nUnbound ^125I-compound 24 was removed by aspiration. […] The resultant pellets were aspirated and the radioactivity (dpm) in each was determined by gamma counting.", "data": [{"smiles": "C=C1[C@@H]2CCC3[C@@](CC[C@@H]4[C@H](C(=O)O)C[C@@H](O[C@@H]5O[C@H](CO)[C@@H](OS(=O)(=O)[O-])[C@H](OS(=O)(=O)[O-])[C@H]5OC(=O)CC(C)C)C[C@@]34C)(C2)[C@@H]1O.[K+].[K+]", "note": "(stereo partly shown) [ATR, atractyloside]", "values": [{"measurement": "competitive inhibition of 125I-compound 24 binding (in words)", "result": "only slight inhibition"}]}]}
